Laboratory results from ChEMBL document CHEMBL4342414, “Activity of 2,6,9-trisubstituted purines as potent PDGFRα kinase inhibitors with antileukaemic activity” (Eur J Med Chem, 2019).
The source made the active and inactive calls. The rule behind the calls is not given here.

Tests used:
[1] = system: K562; assay: Cytotoxicity against human K562 cells assessed as growth inhibition after 72 hrs by resazurin dye-based fluorescence analysis; format: functional; settings: K562, 72 h
[2] = Cytotoxicity against human BJ cells assessed as growth inhibition after 72 hrs by resazurin dye-based fluorescence analysis; format: cell-based
[3] = system: HCC827; assay: Cytotoxicity against human HCC827 cells assessed as growth inhibition after 72 hrs by resazurin dye-based fluorescence analysis; format: functional; settings: HCC827, 72 h
[4] = system: EOL1; assay: Induction of cell cycle arrest at G1 phase in human FIP1L1-PDGFRA positive EOL-1 cells at 10 nM after 24 hrs by propidium iodide staining based flow cytometry; format: functional
[5] = system: EOL1; assay: Cytotoxicity against FIP1L1-PDGFRA positive human EOL-1 cells assessed as growth inhibition after 72 hrs by resazurin dye-based fluorescence analysis; format: functional; settings: EOL1, 72 h
[6] = system: EOL1; assay: Induction of apoptosis in human FIP1L1-PDGFRA positive EOL-1 cells assessed as increase in cell accumulation at subG1 phase at >=10 nM after 24 hrs by propidium iodide staining based flow cytometry relative to control; format: functional
[7] = Cytotoxicity against human CEM cells assessed as growth inhibition after 72 hrs by resazurin dye-based fluorescence analysis; format: cell-based; settings: CEM (CCRF-CEM) cells

Compound: N[C@H]1CC[C@H](Nc2nc(Nc3ccc(CN4CCOCC4)cc3)c3ncn(C4CCCC4)c3n2)CC1
- GI50 [1]: 1120 nM
- GI50 at 72 h [2]: 12300 nM
- GI50 [3]: 1010 nM
- Activity [4]: Active
- GI50 [5]: 7 nM
- Activity [6]: Active
- GI50 at 72 h [7]: 820 nM
